Results published in patent US20220257722A1, “COMPOSITIONS AND METHODS OF TREATING AND PREVENTING SYSTEMIC COMPLICATIONS OF ACUTE ILLNESS” (United States Government As Represented By The Department …, priority 2019, published 2022).

How the values were obtained:
[1] = system: rat jejunal mucosa; test: LPS mucosal-to-serosal transport in Ussing-chambered rat jejunal mucosa (LAL test); format: cell-based; settings: for OA/TCA-augmented LPS transport (t=30-45 min): mucosal LPS 10 μg/ml + OA 30 mM/TCA 0.1 mM; for OA/TCA-augmented LPS transport (t=30-45 min) / LPS transport at t=15 min (LPS alone, absence of OA/TCA): drug added 10 or 15 min before LPS; for LPS transport at t=15 min (LPS alone, absence of OA/TCA): mucosal LPS 10 μg/ml
Description: Short-circuit current measurements in Ussing chambered preparations. Mucosa-submucosa preparations were prepared from the mid-jejunum (˜20 cm from the pyloric ring) by muscle stripping using fine forceps under a stereomicroscope. Two or four preparations were prepared from one animal. The tissue was then mounted between two hemi-sliders with an aperture=0.3 cm^2 (Physiologic Instruments, San Diego, Calif., USA). Chambers were bathed with serosal and luminal bathing solutions in a volume of 4 ml each, maintained at 37° C. using a water recirculating heating system. The serosal Krebs-Ringer solution contained (in mM) NaCl, 117; KCl, 4.7; MgCl2, 1.2; NaH2PO4, 1.2; CaCl2, 2.5; NaHCO3, 25; glucose, 11; and bubbled with 95% O2-5% CO2 to maintain pH at 7.4. The luminal bathing solution contained NaCl, 136; KCl, 2.6; CaCl2, 1.8; HEPES, 10 (pH 7.0); mannitol, 11; and bubbled with 100% O2. The tissues were short-circuited by a voltage clamp (VCC MC6, Physiologic Instruments) at zero potential difference with automatic compensation for solution resistance. Short-circuit current (Isc) was continuously measured with tissue conductance (Gt) and TEER (Ω·cm^2) determined every 20 sec in order to assess the tissue integrity during the LPS and lipid exposure. The current was recorded by the DataQ system (Physiologic Instruments). IND (10 μM) was added to the serosal bath to eliminate the effects of endogenous prostaglandin production. The tissues were stabilized for ˜30 min before the addition of test chemicals.
LPS movement from mucosal to serosal solution. LPS movement m-to-s was assessed using a LAL test kit (Pierce Chromogenic Endotoxin Quant Kit, Pierce Biotechnology, Rockford, Ill., USA), which eliminates non-specific detection of (1,3)-β-D-glucan, then reduces false-positive LPS measurements. After tissue stabilization, time was set as t=0 min. Fifty μl of the serosal solution was collected at 0 min as a blank sample, followed by collection at t=15, 30 and 45 min. At t=0 min, LPS (10 μg/ml) was added into the mucosal solution. Vehicle (PBS alone), TCA alone (0.1 mM) in PBS or OA (3, 10, 30 mM) with TCA (0.1 mM) in PBS was added into the mucosal solution at t=15 min. The tissues were pretreated with drugs 10 or 15 min before the addition of LPS (i.e. at t=−10 or −15 min). The collected serosal solutions were kept at −80° C. until use. LPS content in the serosal solutions was measured with the LAL test according to the manufacturer's protocol. The value of background at t=0 min was subtracted and the serosal LPS appearance was expressed as Δ[LPS] (EU/ml). In some experiments, FITC-LPS (10 μg/ml) was used instead of LPS. Serosal FITC-LPS content was assessed by FITC fluorescence intensity measurement using a multi-mode microplate reader (Synergy-2, BioTek Instruments, Inc., Winooski, Vt., USA). To detect macromolecule m-to-s movement across the mucosa, FD4 (0.1 mM) was applied into the mucosal bath and serosal FD4 content was assessed by FITC fluorescence intensity measurement.
Ussing chamber study: drug treatment. The following drugs were pretreated by addition to the mucosal (m) or serosal (s) bath 10 or 15 min before LPS addition to the mucosal bath: the lipid raft inhibitor MβCD (1 mM, m), the CD36 inhibitor SSO (0.1 mM, m), the muscarinic agonist CCh (10 μM, s), a competitive substrate for IAP (IAP inhibitor) GP (10 mM, m) (47), GLP-2 (100 nM, s), the dipeptidyl peptidase-4 (DPP4) inhibitor NVP-728 (10 μM, s) (36), the stable GLP-2 analog TDG (100 nM) (13), the insulin-like growth factor-1 (IGF-1) receptor tyrosine kinase inhibitor NVP-AEW-541 (10 μM, s) (22), the epidermal growth factor (EGF) tyrosine kinase inhibitor PD153035 (1 μM, s) (6), the nitric oxide (NO) synthase (NOS) inhibitor L-NAME (0.1 mM, s) and the selective VPAC1 antagonist PG97-269 (1 μM) (26).

[2] = system: rat small intestine; test: LPS-induced small intestinal FD4 paracellular permeability in vivo (PV and arterial FD4); settings: for TDG-induced inhibitory effect on PV FD4 levels: LPS 6 hr + TDG 6 hr
Description: LPS treatment. Animals were treated with LPS (5 mg/kg, ip) once at 9 am. For the acute experiments, the animals were fasted overnight and were treated with LPS 1, 3, or 6 hr before the anesthesia for small intestinal perfusion of FD4 as described herein. For the 24-hr experiments, the animals fed ad libitum were treated with LPS 24 hr before anesthesia induction used for the perfusion study. As a control, saline was injected ip at the corresponding time before the experiments. The animal groups were expressed as control, LPS 1 hr, LPS 3 hr, LPS 6 hr, and LPS 24 hr.
Small intestinal perfusion. The small intestinal perfusion from the duodenum, and portal vein (PV) cannulation were prepared by the modified methods. Under isoflurane anesthesia (2%), the animal was placed […] on a recirculating heating block system (Summit Medical Systems, Bend, Oreg., USA) in order to maintain body temperature at 36-37° C. Prewarmed saline was infused via the right femoral vein at 1.08 ml/h using a Harvard infusion pump (Harvard Apparatus, Holliston, Mass., USA). The abdomen was incised, and the PV was cannulated with a polyethylene (PE)-50 tube attached with 23G needle and fixed by methylacrylate adhesive at the insertion site. The tube was filled with heparinized saline enabling repeated blood sampling. Samples of 0.2 ml PV blood were collected every 15 min, followed by flushing with 0.2 ml heparinized saline. A polyethylene tube (diameter 5 mm) filled with PBS was inserted through the forestomach and tied at 0.5 cm caudal from the pyloric ring. After bolus perfusion of 2-ml phosphate buffer saline (PBS, 10 mM, pH 7.4) into the duodenum from the tube, followed by stabilization for ˜30 min, the time was set as t=0. FD4 (0.1 mM) in 10-ml PBS was slowly perfused at t=0 min for 30 sec. Blood samples were collected into a 0.5-ml tubes containing 1-μl each of EDTA (0.5 M) and the dipeptidyl peptidase-4 (DPP4) inhibitor NVP-728 (1 mM), and immediately centrifuged at 5,000× g for 5 min, after which the plasma was stored on ice or at −80 ° C. until use. At 90 min, after collection of PV samples, arterial blood was taken from abdominal aorta, followed by euthanasia by thoracotomy.
Appearance of FD4 into the PV and arterial plasma was assessed by fluorescence intensity measurement using a multi-mode microplate reader (Synergy-2, BioTek Instruments, Inc., Winooski, VT, USA). Fluorescence intensity in t=0 sample as background was subtracted from the fluorescence values measured in other time point samples. FD4 content was calculated according to the standard curve generated each time of measurement.
Drug treatment for the intestinal perfusion study. The following drugs were administered at the time after LPS treatment: the GLP2R partial agonist/antagonist GLP-2(3-33) (1 mg/kg; 280 nmol/kg, ip) was given immediately after LPS treatment (0 hr after LPS treatment); GLP-2 (380 μg/kg; 100 nmol/kg, ip) was given 6 hr after LPS treatment; a stable GLP-2 analog TDG (50 μg/kg; 13.3 nmol/kg) was ip injected 0, 3, 6, or 12 hr after LPS treatment or iv injected at t=0 min just before the perfusion of FD4 solution (6 or 24 hr after LPS treatment). In acute experiments, TDG was iv injected at t=0 min (6 hr after LPS treatment) with or without the pretreatment of the selective IGF1 receptor (IGF1R) tyrosine kinase inhibitor AEW541 (0.1 mg/kg, iv), the selective EGF receptor (EGFR) tyrosine kinase inhibitor PD153035 (10 μg/kg, iv) or PG97-269 (1 mg/kg, iv) at t=−10 min, or the co-perfusion of L-NAME (0.1 mM, pf) with FD4 solution.

[3] = pig, in vivo; cited from earlier work
[4] = inhibitor iv at t=-10 min or co-perfused
[5] = inhibitor serosal before GLP-2 + NVP-728
[6] = LPS 6 hr model, GLP-2(3-33) 1 mg/kg ip immediately after LPS
[7] = LPS 24 hr model, GLP-2 380 μg/kg ip 6 hr after LPS

C[N+](C)(C)CCOC(N)=O [CCh, carbachol]
OA/TCA-augmented LPS transport (t=30-45 min) [1]: further increased
LPS transport at t=15 min (LPS alone, absence of OA/TCA) [1]: increased

O=P(O)(O)OCC(O)CO (stereo not drawn) [GP, glycerol phosphate]
OA/TCA-augmented LPS transport (t=30-45 min) [1]: further increased
LPS transport at t=15 min (LPS alone, absence of OA/TCA) [1]: no effect

N#Cc1ccc(NCCNCC(=O)N2CCC[C@H]2C#N)nc1 [NVP-728]
OA/TCA-augmented LPS transport (t=30-45 min) [1]: no effect
LPS transport at t=15 min (LPS alone, absence of OA/TCA) [1]: no effect

Nc1ncnc2c1c(-c1cccc(OCc3ccccc3)c1)cn2[C@H]1C[C@@H](CN2CCC2)C1 [NVP-AEW-541]
TDG-induced inhibitory effect on PV FD4 levels [2, 4]: no effect

COc1cc2ncnc(Nc3cccc(Br)c3)c2cc1OC [PD153035]
amount of LPS transport after addition of OA/TCA, in presence of GLP-2 + NVP-728 [1, 5]: further increased
amount of LPS transport at t=15 min (prior to OA/TCA exposure), in presence of GLP-2 + NVP-728 [1, 5]: increased
TDG-induced inhibitory effect on PV FD4 levels [2, 4]: no effect
Arterial FD4 levels in LPS 6 hr + TDG 6 hr rats ([2]; t=90 min, inhibitor iv at t=-10 min or co-perfused): not affected

GLP-2(3-33): GLP-2 receptor partial agonist/antagonist; truncated GLP-2 peptide missing the first 2 amino acids (DGSFSDEMNTILDNLATRDFINWLIQTKITD; Glucagon-like peptide 2; UniProt P06883 148-178, looked up, fragment)
OA/TCA-augmented LPS transport (t=30-45 min) [1]: no effect
LPS transport at t=15 min (LPS alone, absence of OA/TCA) [1]: no effect
PV FD4 levels at t=60-90 min [2, 6]: further increased
arterial FD4 levels at t=90 min [2, 6]: further increased

HADGSFSDEMNTILDNLATRDFINWLIQTKITD [GLP-2]
LPS transport during OA/TCA exposure period, GLP-2 with NVP-728 ([1]; GLP-2 100 nM + DPP4 inhibitor NVP-728 10 μM, serosal): inhibited
OA/TCA-augmented LPS transport (t=30-45 min) [1]: no effect
LPS transport at t=15 min (LPS alone, absence of OA/TCA) [1]: no effect
PV FD4 levels [2, 7]: reduced
arterial FD4 levels [2, 7]: reduced
t1/2 of exogenous GLP-2 [3]: ~7 min
